Experimental data as given in US12606541B2, “PPARg modulators and methods of use” (Eisai R&D Management Co., Ltd., priority 2020, dated 2026).

Target: T1, His6-TEV-PPARγ-(234-505) (Homo sapiens, UniProt P37231)
T1 construct: The His6-TEV-PPARγ-(234-505) protein for assay was expressed and purified; TEV cleavage site (N); made in house
T1 sequence (P37231 234-505): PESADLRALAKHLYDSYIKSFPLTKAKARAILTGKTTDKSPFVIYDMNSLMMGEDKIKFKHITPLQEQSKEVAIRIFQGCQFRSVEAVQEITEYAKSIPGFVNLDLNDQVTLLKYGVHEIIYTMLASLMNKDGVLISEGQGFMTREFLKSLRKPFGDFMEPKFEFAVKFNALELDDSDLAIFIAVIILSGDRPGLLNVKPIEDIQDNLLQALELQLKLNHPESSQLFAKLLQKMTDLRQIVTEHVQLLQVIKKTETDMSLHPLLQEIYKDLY
Experiment: TR-FRET Assay to Measure Co-R Peptide Recruitment to PPARγ
Format: biochemical
Conditions: Co-R peptide recruitment to PPARγ; read-out: TR-FRET AC50
In short: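 His-tagged PPARγ (or controls) was preincubated with compound for 20 minutes at room temperature, then 5 nM anti-His terbium antibody and 200 nM FITC-labeled SMRT-ID2 corepressor peptide (final) were added for a further hour. TR-FRET signal was normalized to percent response using 500 nM T0070907 and DMSO controls.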

AC50 [µM] | Compound
> 1 | COc1cc(-c2cc(C(=O)N3CCC(C(=O)NCc4ccc(=O)[nH]c4)CC3)n[nH]2)c(Cl)cn1 [1-[5-(5-chloro-2-methoxypyridin-4-yl)-1H-pyrazole-3-carbonyl]-N-[(6-oxo-1,6-dihydropyridin-3-yl)methyl]piperidine-4-carboxamide]
> 1 | COc1cc(-c2cc(C(=O)N3CCC(C(=O)NCc4nccc(=O)[nH]4)CC3)n[nH]2)c(Cl)cn1 [1-[5-(5-chloro-2-methoxypyridin-4-yl)-1H-pyrazole-3-carbonyl]-N-[(6-oxo-1,6-dihydropyrimidin-2-yl)methyl]piperidine-4-carboxamide]
> 1 | COc1cc(-c2cc(C(=O)N3CCC(C(=O)N[C@@H]4CCCc5cccnc54)CC3)n[nH]2)c(Cl)cn1 [1-[5-(5-chloro-2-methoxypyridin-4-yl)-1H-pyrazole-3-carbonyl]-N-[(8R)-5,6,7,8-tetrahydroquinolin-8-yl]piperidine-4-carboxamide]
> 1 | COc1cc(-c2cc(C(=O)N3CCC(C(=O)N[C@H]4CCCc5cccnc54)CC3)n[nH]2)c(Cl)cn1 [1-[5-(5-chloro-2-methoxypyridin-4-yl)-1H-pyrazole-3-carbonyl]-N-[(8S)-5,6,7,8-tetrahydroquinolin-8-yl]piperidine-4-carboxamide]
> 1 | COc1cc(-c2cc(C(=O)N3CCC(C(=O)NCC4CCCCO4)CC3)n[nH]2)c(Cl)cn1 (stereo not drawn) [1-[5-(5-chloro-2-methoxypyridin-4-yl)-1H-pyrazole-3-carbonyl]-N-[(oxan-2-yl)methyl]piperidine-4-carboxamide]
> 1 | COc1cc(-c2cc(C(=O)N3CCC(C(=O)NCC4CCCOC4)CC3)n[nH]2)c(Cl)cn1 (stereo not drawn) [1-[5-(5-chloro-2-methoxypyridin-4-yl)-1H-pyrazole-3-carbonyl]-N-[(oxan-3-yl)methyl]piperidine-4-carboxamide]
> 1 | COc1cc(-c2cc(C(=O)N3CCC(C(=O)NCC4CCCO4)CC3)n[nH]2)c(Cl)cn1 (stereo not drawn) [1-[5-(5-chloro-2-methoxypyridin-4-yl)-1H-pyrazole-3-carbonyl]-N-[(oxolan-2-yl)methyl]piperidine-4-carboxamide]
> 1 | COc1cc(-c2cc(C(=O)N3CCC(C(=O)NCc4cnccn4)CC3)n[nH]2)c(Cl)cn1 [1-[5-(5-chloro-2-methoxypyridin-4-yl)-1H-pyrazole-3-carbonyl]-N-[(pyrazin-2-yl)methyl]piperidine-4-carboxamide]
> 1 | COc1cc(-c2cc(C(=O)N3CCC(C(=O)NCc4cccnn4)CC3)n[nH]2)c(Cl)cn1 [1-[5-(5-chloro-2-methoxypyridin-4-yl)-1H-pyrazole-3-carbonyl]-N-[(pyridazin-3-yl)methyl]piperidine-4-carboxamide]
> 1 | COc1cc(-c2cc(C(=O)N3CCC(C(=O)NCc4ncccn4)CC3)n[nH]2)c(Cl)cn1 [1-[5-(5-chloro-2-methoxypyridin-4-yl)-1H-pyrazole-3-carbonyl]-N-[(pyrimidin-2-yl)methyl]piperidine-4-carboxamide]
> 1 | COc1cc(-c2cc(C(=O)N3CCC(C(=O)NCc4ccncn4)CC3)n[nH]2)c(Cl)cn1 [1-[5-(5-chloro-2-methoxypyridin-4-yl)-1H-pyrazole-3-carbonyl]-N-[(pyrimidin-4-yl)methyl]piperidine-4-carboxamide]
> 1 | COc1cc(-c2cc(C(=O)N3CCC(C(=O)NC4CC4)CC3)n[nH]2)c(Cl)cn1 [1-[5-(5-chloro-2-methoxypyridin-4-yl)-1H-pyrazole-3-carbonyl]-N-cyclopropylpiperidine-4-carboxamide]
> 1 | COc1cc(-c2cc(C(=O)N3CCC(C(=O)N(C)C4CCC(C)CC4)CC3)n[nH]2)c(Cl)cn1 (stereo not drawn) [1-[5-(5-chloro-2-methoxypyridin-4-yl)-1H-pyrazole-3-carbonyl]-N-methyl-N-(4-methylcyclohexyl)piperidine-4-carboxamide]
> 1 | COc1cc(-c2cc(C(=O)N3CCC(C(=O)NC45CCC(C)(C4)OC5)CC3)n[nH]2)c(Cl)cn1 (stereo not drawn) [1-[5-(5-chloro-2-methoxypyridin-4-yl)-1H-pyrazole-3-carbonyl]-N-{1-methyl-2-oxabicyclo[2.2.1]heptan-4-yl}piperidine-4-carboxamide]
> 1 | COc1cc(-c2cc(C(=O)N3CCC(C(=O)NC45COC(C4)C5)CC3)n[nH]2)c(Cl)cn1 [1-[5-(5-chloro-2-methoxypyridin-4-yl)-1H-pyrazole-3-carbonyl]-N-{2-oxabicyclo[2.1.1]hexan-4-yl}piperidine-4-carboxamide]
> 1 | COc1cc(-c2cc(C(=O)N3CCC(C(=O)NC45CC(F)(C4)C5)CC3)n[nH]2)c(Cl)cn1 [1-[5-(5-chloro-2-methoxypyridin-4-yl)-1H-pyrazole-3-carbonyl]-N-{3-fluorobicyclo[1.1.1]pentan-1-yl}piperidine-4-carboxamide]
> 1 | COc1cc(-c2cc(C(=O)N3CCC(C(=O)NC45CCC(O)(CC4)CC5)CC3)n[nH]2)c(Cl)cn1 [1-[5-(5-chloro-2-methoxypyridin-4-yl)-1H-pyrazole-3-carbonyl]-N-{4-hydroxybicyclo[2.2.2]octan-1-yl}piperidine-4-carboxamide]
> 1 | COc1cc(-c2cc(C(=O)N3CCC(C(=O)NCC4(N(C)C)CCCC4)CC3)n[nH]2)c(Cl)cn1 [1-[5-(5-chloro-2-methoxypyridin-4-yl)-1H-pyrazole-3-carbonyl]-N-{[1-(dimethylamino)cyclopentyl]methyl}piperidine-4-carboxamide]
> 1 | COc1cc(-c2cc(C(=O)N3CCC(C(=O)NCc4ccccc4C(F)(F)F)CC3)n[nH]2)c(Cl)cn1 [1-[5-(5-chloro-2-methoxypyridin-4-yl)-1H-pyrazole-3-carbonyl]-N-{[2-(trifluoromethyl)phenyl]methyl}piperidine-4-carboxamide]
> 1 | COc1cc(-c2cc(C(=O)N3CCC(C(=O)NCc4cc(F)cc(C(F)(F)F)c4)CC3)n[nH]2)c(Cl)cn1 [1-[5-(5-chloro-2-methoxypyridin-4-yl)-1H-pyrazole-3-carbonyl]-N-{[3-fluoro-5-(trifluoromethyl)phenyl]methyl}piperidine-4-carboxamide]
> 1 | COc1cc(-c2cc(C(=O)N3CCC(C(=O)NCc4ncc(C(F)F)cn4)CC3)n[nH]2)c(Cl)cn1 [1-[5-(5-chloro-2-methoxypyridin-4-yl)-1H-pyrazole-3-carbonyl]-N-{[5-(difluoromethyl)pyrimidin-2-yl]methyl}piperidine-4-carboxamide]
> 1 | COc1cc(-c2cc(C(=O)N3CCC(C(=O)NCc4nnc5ccc(C(F)(F)F)cn45)CC3)n[nH]2)c(Cl)cn1 [1-[5-(5-chloro-2-methoxypyridin-4-yl)-1H-pyrazole-3-carbonyl]-N-{[6-(trifluoromethyl)-[1,2,4]triazolo[4,3-a]pyridin-3-yl]methyl}piperidine-4-carboxamide]
> 1 | COc1cc(-c2cc(C(=O)N3CCC(C(=O)Nc4cnc5ccccn45)CC3)n[nH]2)c(Cl)cn1 [1-[5-(5-chloro-2-methoxypyridin-4-yl)-1H-pyrazole-3-carbonyl]-N-{imidazo[1,2-a]pyridin-3-yl}piperidine-4-carboxamide]
> 1 | COc1cc(-c2cc(C(=O)N3CCC(C(=O)O)CC3)n[nH]2)c(Cl)cn1 [1-[5-(5-chloro-2-methoxypyridin-4-yl)-1H-pyrazole-3-carbonyl]piperidine-4-carboxylic acid]
